# Measurements taken from patent US11566022B2, “3-(5-methoxy-1-oxoisoindolin-2-yl)piperidine-2,6-dione derivatives and uses thereof” (NOVARTIS AG, priority 2019, dated 2023).
# Target: HiBit-WIZ fusion protein (Homo sapiens, UniProt O95785+Q96SW2)
# Experiment: Quantification of WIZ protein levels in HiBit tag fusion protein assay (WIZ HiBit assay in 293T cells)
# Format: cell-based
# Set-up: Dmax: dose or concentration left out as unconfirmed
# Details: for Dmax / remaining activity at up to 25 µM: HEK-293T; for Dmax / % degradation of WIZ (100-Amax): 100 minus Amax; for Dmax / remaining activity at up to 25 µM / % degradation of WIZ (100-Amax) / WIZ Amax: 293T cells; for Dmax: read-out: % degradation of WIZ (100-Amax); for remaining activity at up to 25 µM / WIZ Amax: DMSO-normalized, curve-fitted percentage of WIZ-HiBit remaining at 25 uM; for remaining activity at up to 25 µM: read-out: WIZ Amax; for DC50: WIZ HiBit assay in 293T cells, 10-point, 5-fold dose response, highest concentration 25 μM, about 18 hours, read-out: WIZ AC50; for % degradation of WIZ (100-Amax): at 25 uM
# Sequence of HiBit-WIZ fusion protein (O95785 whole entry, the tested form may be a part): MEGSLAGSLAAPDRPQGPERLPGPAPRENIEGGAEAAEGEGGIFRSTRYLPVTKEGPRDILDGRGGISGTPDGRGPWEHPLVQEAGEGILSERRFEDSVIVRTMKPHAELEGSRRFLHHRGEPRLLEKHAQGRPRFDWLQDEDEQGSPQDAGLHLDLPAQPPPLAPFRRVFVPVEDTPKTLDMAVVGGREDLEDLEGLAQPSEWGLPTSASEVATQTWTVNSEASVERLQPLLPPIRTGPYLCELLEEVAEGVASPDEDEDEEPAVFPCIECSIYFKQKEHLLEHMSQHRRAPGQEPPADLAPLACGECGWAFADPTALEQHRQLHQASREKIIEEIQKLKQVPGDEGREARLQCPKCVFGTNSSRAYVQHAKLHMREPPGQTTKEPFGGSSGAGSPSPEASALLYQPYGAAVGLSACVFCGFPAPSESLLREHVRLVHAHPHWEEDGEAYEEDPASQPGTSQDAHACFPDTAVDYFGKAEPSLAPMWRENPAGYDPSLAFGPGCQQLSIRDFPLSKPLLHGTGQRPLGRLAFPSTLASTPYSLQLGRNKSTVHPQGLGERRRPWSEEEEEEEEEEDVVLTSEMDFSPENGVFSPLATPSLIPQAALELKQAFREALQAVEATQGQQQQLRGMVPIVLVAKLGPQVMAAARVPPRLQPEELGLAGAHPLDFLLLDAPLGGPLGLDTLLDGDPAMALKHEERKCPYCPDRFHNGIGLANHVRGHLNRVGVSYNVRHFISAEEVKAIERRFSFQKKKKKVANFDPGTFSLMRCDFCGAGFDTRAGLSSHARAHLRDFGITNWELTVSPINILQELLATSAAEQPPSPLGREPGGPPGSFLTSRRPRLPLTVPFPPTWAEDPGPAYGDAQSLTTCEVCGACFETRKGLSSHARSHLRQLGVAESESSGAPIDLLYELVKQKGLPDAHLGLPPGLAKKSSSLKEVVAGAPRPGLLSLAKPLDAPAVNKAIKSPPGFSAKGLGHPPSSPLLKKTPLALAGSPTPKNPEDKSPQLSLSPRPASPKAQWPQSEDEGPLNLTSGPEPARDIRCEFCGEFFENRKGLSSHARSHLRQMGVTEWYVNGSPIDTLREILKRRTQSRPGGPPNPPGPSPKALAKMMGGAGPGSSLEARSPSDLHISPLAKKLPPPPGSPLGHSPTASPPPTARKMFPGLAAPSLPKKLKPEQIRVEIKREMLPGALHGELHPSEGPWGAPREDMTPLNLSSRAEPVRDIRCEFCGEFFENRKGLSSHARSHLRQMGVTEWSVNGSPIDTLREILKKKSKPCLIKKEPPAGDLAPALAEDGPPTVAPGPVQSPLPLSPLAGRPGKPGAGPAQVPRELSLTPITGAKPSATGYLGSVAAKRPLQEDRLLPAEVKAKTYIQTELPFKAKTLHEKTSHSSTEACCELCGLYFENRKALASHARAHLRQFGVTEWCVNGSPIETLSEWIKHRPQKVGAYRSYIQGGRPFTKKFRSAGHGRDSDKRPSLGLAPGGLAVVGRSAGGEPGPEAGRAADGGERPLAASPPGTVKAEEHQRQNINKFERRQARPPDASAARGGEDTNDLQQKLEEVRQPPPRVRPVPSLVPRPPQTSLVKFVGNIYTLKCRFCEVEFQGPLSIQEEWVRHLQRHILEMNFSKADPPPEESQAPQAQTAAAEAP
# Sequence of HiBit-WIZ fusion protein (Q96SW2 whole entry, the tested form may be a part): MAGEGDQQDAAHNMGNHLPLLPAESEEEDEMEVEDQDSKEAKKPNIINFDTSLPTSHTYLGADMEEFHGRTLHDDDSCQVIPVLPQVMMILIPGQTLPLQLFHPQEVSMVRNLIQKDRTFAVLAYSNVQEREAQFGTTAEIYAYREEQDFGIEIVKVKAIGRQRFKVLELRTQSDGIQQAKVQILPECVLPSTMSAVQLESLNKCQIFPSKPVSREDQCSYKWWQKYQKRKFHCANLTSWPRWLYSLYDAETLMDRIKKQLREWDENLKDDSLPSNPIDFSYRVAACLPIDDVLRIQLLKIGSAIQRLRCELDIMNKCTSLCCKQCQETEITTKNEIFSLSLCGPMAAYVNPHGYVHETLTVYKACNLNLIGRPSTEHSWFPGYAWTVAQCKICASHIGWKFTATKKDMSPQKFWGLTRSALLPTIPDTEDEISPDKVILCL
# Sequence of HiBit-WIZ fusion protein (Q16531 whole entry partner, the tested form may be a part): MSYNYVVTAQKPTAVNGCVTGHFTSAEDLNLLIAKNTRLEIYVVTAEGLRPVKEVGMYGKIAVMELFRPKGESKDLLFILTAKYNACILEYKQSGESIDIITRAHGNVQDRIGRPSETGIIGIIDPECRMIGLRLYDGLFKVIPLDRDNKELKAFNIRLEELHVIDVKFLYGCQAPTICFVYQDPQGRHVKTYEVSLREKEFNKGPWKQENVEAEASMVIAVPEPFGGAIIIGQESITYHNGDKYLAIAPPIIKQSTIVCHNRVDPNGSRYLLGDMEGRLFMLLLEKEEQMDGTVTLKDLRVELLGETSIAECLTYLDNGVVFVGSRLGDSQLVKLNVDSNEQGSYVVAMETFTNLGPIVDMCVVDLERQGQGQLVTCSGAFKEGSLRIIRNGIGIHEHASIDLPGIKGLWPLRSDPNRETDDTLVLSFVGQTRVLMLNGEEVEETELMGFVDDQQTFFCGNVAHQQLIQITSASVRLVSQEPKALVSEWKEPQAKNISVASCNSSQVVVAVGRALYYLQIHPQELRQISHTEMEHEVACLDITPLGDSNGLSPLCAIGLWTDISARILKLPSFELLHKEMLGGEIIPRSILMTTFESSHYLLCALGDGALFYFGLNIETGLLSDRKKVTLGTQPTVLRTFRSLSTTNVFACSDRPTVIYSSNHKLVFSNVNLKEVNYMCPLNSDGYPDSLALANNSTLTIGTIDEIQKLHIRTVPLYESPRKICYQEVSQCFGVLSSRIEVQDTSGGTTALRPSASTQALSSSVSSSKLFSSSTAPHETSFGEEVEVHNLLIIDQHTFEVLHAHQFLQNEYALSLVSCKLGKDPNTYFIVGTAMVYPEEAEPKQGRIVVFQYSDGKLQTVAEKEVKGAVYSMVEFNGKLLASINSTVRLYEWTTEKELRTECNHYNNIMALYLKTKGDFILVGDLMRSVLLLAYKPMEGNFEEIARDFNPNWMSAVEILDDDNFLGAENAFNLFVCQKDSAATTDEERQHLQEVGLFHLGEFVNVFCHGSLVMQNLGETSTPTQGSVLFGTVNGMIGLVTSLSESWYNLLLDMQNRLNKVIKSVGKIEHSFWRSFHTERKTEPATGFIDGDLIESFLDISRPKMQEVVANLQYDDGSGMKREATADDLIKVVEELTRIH
Compound,Dmax [%],remaining activity at up to 25 µM [%],DC50 [nM],% degradation of WIZ (100-Amax) [%],WIZ Amax [%]
"CCN1CCC(F)(F)CC1COc1ccc2c(c1)CN(C1CCC(=O)NC1=O)C2=O (single isomer, unassigned) [I-252 (Isomer 1), 3-(5-((1-ethyl-4,4-difluoropiperidin-2-yl)methoxy)-1-oxoisoindolin-2-yl)piperidine-2,6-dione]",–,–,50,58.1,41.9
"CCN1CCC(F)(F)CC1COc1ccc2c(c1)CN(C1CCC(=O)NC1=O)C2=O (single isomer, unassigned) [I-252 (Isomer 2), 3-(5-((1-ethyl-4,4-difluoropiperidin-2-yl)methoxy)-1-oxoisoindolin-2-yl)piperidine-2,6-dione]",–,–,11,77.1,22.9
"CCN1CCC(F)(F)CC1COc1ccc2c(c1)CN(C1CCC(=O)NC1=O)C2=O (single isomer, unassigned) [I-252 (Isomer 3), 3-(5-((1-ethyl-4,4-difluoropiperidin-2-yl)methoxy)-1-oxoisoindolin-2-yl)piperidine-2,6-dione]",–,–,45,55.1,44.9
"CCN1C2CCC(C2)C1COc1ccc2c(c1)CN(C1CCC(=O)NC1=O)C2=O (single isomer, unassigned) [I-255 (Isomer 1), 3-(5-((endo-2-ethyl-2-azabicyclo[2.2.1]heptan-3-yl)methoxy)-1-oxoisoindolin-2-yl)piperidine-2,6-dione]",–,–,12,73.2,26.8
"CCN1C2CCC(C2)C1COc1ccc2c(c1)CN(C1CCC(=O)NC1=O)C2=O (single isomer, unassigned) [I-255 (Isomer 2), 3-(5-((endo-2-ethyl-2-azabicyclo[2.2.1]heptan-3-yl)methoxy)-1-oxoisoindolin-2-yl)piperidine-2,6-dione]",–,–,98,28.8,71.2
"CCN1C2CCC(C2)C1COc1ccc2c(c1)CN(C1CCC(=O)NC1=O)C2=O (single isomer, unassigned) [I-255 (Isomer 3), 3-(5-((endo-2-ethyl-2-azabicyclo[2.2.1]heptan-3-yl)methoxy)-1-oxoisoindolin-2-yl)piperidine-2,6-dione]",–,–,360,26.5,73.5
"CCN1C2CCC(C2)C1COc1ccc2c(c1)CN(C1CCC(=O)NC1=O)C2=O (single isomer, unassigned) [I-255 (Isomer 4), 3-(5-((endo-2-ethyl-2-azabicyclo[2.2.1]heptan-3-yl)methoxy)-1-oxoisoindolin-2-yl)piperidine-2,6-dione]",–,–,34,73.0,27.0
O=C1CCC(N2Cc3cc(OC[C@@H]4CCCCN4Cc4cccc(N5CCCC5)c4)ccc3C2=O)C(=O)N1 (stereo partly drawn) [Compound I-50aa],95.1,4.9,412,–,–
O=C1CCC(N2Cc3cc(OC[C@@H]4CCCCN4Cc4ccccc4OCCN4CCOCC4)ccc3C2=O)C(=O)N1 (stereo partly drawn) [Compound I-50ab],50.8,49.2,> 25000,–,–
Cc1nc[nH]c1CN1CCCC[C@H]1COc1ccc2c(c1)CN(C1CCC(=O)NC1=O)C2=O (stereo partly drawn) [Compound I-50ac],92.3,7.7,578,–,–
COc1cc2[nH]nc(CN3CCCC[C@H]3COc3ccc4c(c3)CN(C3CCC(=O)NC3=O)C4=O)c2cc1OCc1ccccc1 (stereo partly drawn) [Compound I-50ae],53.1,46.9,> 25000,–,–
O=C1CCC(N2Cc3cc(OC[C@@H]4CCCCN4Cc4n[nH]c5ccc(Oc6cccnc6)cc45)ccc3C2=O)C(=O)N1 (stereo partly drawn) [Compound I-50af],57.2,42.8,21100,–,–
Cn1cncc1CN1CCCC[C@H]1COc1ccc2c(c1)CN(C1CCC(=O)NC1=O)C2=O (stereo partly drawn) [Compound I-50ag],62.8,37.2,15200,–,–
Cn1nnc2cc(CN3CCCC[C@H]3COc3ccc4c(c3)CN(C3CCC(=O)NC3=O)C4=O)ccc21 (stereo partly drawn) [Compound I-50ah],44.4,55.6,> 25000,–,–
O=C1CCC(N2Cc3cc(OC[C@@H]4CCCCN4Cc4ccc(-n5nccn5)cc4)ccc3C2=O)C(=O)N1 (stereo partly drawn) [Compound I-50ai],77.8,22.2,591,–,–

# Other lines, results leading:
Dmax [%],remaining activity at up to 25 µM [%],DC50 [nM],% degradation of WIZ (100-Amax) [%],WIZ Amax [%],Compound
26.4,73.6,> 25000,–,–,"CCN1CCCC(C)(C)C1COc1ccc2c(c1)CN(C1CCC(=O)NC1=O)C2=O (single isomer, unassigned) [Compound I-17, 3-(5-((1-ethyl-3,3-dimethylpiperidin-2-yl)methoxy)-1-oxoisoindolin-2-yl)piperidine-2,6-dione]"
–,–,> 25000,34.7,65.3,"CCN1CCCC(C)(C)C1COc1ccc2c(c1)CN(C1CCC(=O)NC1=O)C2=O (single isomer, unassigned) [Compound I-19, 3-(5-((1-ethyl-3,3-dimethylpiperidin-2-yl)methoxy)-1-oxoisoindolin-2-yl)piperidine-2,6-dione]"
–,–,> 25000,46.6,53.4,"CCN1CCC[C@H]1C(C)Oc1ccc2c(c1)CN(C1CCC(=O)NC1=O)C2=O (single isomer, unassigned) [Compound I-25]"
–,–,> 25000,15.6,84.4,"CCN1CCC[C@H]1C(C)Oc1ccc2c(c1)CN(C1CCC(=O)NC1=O)C2=O (single isomer, unassigned) [Compound I-27]"
–,89.7,> 25000,10.3,–,"CCC(Oc1ccc2c(c1)CN(C1CCC(=O)NC1=O)C2=O)[C@@H]1CCCN1 (single isomer, unassigned) [Compound I-44]"
–,–,> 25000,21.3,78.7,"CCC(Oc1ccc2c(c1)CN(C1CCC(=O)NC1=O)C2=O)[C@@H]1CCCN1 (single isomer, unassigned) [Compound I-45]"
53.9,46.1,150,–,–,"O=C1CCC(N2Cc3cc(OC[C@H]4CCCCN4CC4CCOC4)ccc3C2=O)C(=O)N1 (single isomer, unassigned) [Compound I-211]"
–,–,120,55.68,44.32,"O=C1CCC(N2Cc3cc(OC[C@H]4CCCCN4CC4CCOC4)ccc3C2=O)C(=O)N1 (single isomer, unassigned) [Compound I-213]"
73.9,26.1,1400,–,–,"COC1CCC(CN2CCCCC2C(C)Oc2ccc3c(c2)CN(C2CCC(=O)NC2=O)C3=O)CC1 (single isomer, unassigned) [Compound I-219, 3-(5-(1-(1-((4-methoxycyclohexyl)methyl)piperidin-2-yl)ethoxy)-1-oxoisoindolin-2-yl)piperidine-2,6-dione]"
52.2,47.8,> 25000,–,–,COc1ccc(CN2CCCC[C@H]2COc2ccc3c(c2)CN(C2CCC(=O)NC2=O)C3=O)cc1F (stereo partly drawn) [Compound I-50a]
